In brackets after ≈: the same amount, converted by molar mass.
What was measured:
[1] = test system: Staphylococcus aureus SG511; test: Agar diffusion assay; assay type: cell-based; conditions: 50 μL of 0.5 mg in 1 mL methanol per 7 mm hole, n.a. = no activity observed, read-out: diameter of inhibition zone
Procedure: (§1) Antimicrobial activities of the gulmirecins were determined in a primary screen against Bacillus subtilis ATCC 6633, Staphylococcus aureus SG511, Staphylococcus auricularis DSM 20609, Mycobacterium vaccae IMET 10670, Pseudomonas aeruginosa K799/61, Escherichia coli SG458, Sporobolomyces salmonicolor SBUG 549, Candida albicans ATCC14053 and Penicillium notatum JP 36. To this end, holes with 7 mm diameter were aseptically punched in the respective agar medium. Subsequently, the agar plates were inoculated with the test organisms. 0.5 mg of every test compound was dissolved in 1 mL of methanol, and 50 μL of this solution was transferred to a single hole. Ciprofloxacin and amphotericin B served as positive controls. After evaporation of the solvent, the agar plates were incubated depending on the growth conditions of the test organisms. […] The test results are shown in Table 6 below, wherein the given values represent the diameters of the respective inhibition zone in the agar diffusion assay.

[2] = test system: Staphylococcus auricularis DSM 20609; test: Agar diffusion assay; assay type: cell-based; conditions: DSM20609, 50 μL of 0.5 mg in 1 mL methanol per 7 mm hole, n.a. = no activity observed, read-out: diameter of inhibition zone
Procedure: as §1

[3] = test system: transformed lung epithelial A-549 cells; test: MTT assay, cytotoxic activity; assay type: cell-based, human; conditions: incubation 24 or 48 hours
Procedure: The cytotoxic activity of gulmirecin A (3) and gulmirecin B (4) against human cells was evaluated in the well-established MTT assay using primary monocytes from human peripheral blood as well as transformed lung epithelial cell A-549 cell and leukemic Mono Mac 6 cells. Furthermore, 3 and 4 were tested against K-562, HUVEC, and HeLa cells.
(§2) The human monocytic cell line Mono Mac 6 was cultured in RPMI 1640 medium supplemented with FCS (10%, v/v), penicillin (100 U/ml), streptomycin (100 μg/ml), insulin (10 μg/ml), oxaloacetic acid (1 mM), sodium pyruvate (1 mM), and 1× non-essential amino acids at 37° C. and 5% CO2. A-549 cells (DSM ACC-107) were cultured in DMEM high glucose (4.5 g/l) medium supplemented with FCS (10% v/v), penicillin (100 U/ml) and streptomycin (100 μg/ml) at 37° C. in a 5% CO2 incubator. K-562 (DSM ACC 10) and HeLa cells (DSM ACC 57) were grown in RPMI 1640, whereas cells of HUVEC (ATCC CRL-1730) were cultured in DMEM medium. The respective media were supplemented with ultraglutamine 1 (10 ml/l), gentamicin sulfate (500 μl/l), and FCS (10% v/v).
Cells (3×10^5 Mono Mac 6, 1×10^5 A-549 cells, or 2×10^6 monocytes per well) were seeded in a 96-well plate in the respective medium (100 μl/well). Monocytes were allowed to adhere for 1.5 hours (37° C., 5% CO2) prior to treatment. Test compounds (0.3% DMSO as vehicle) were added to each well and samples were incubated for 48 hrs. Then, 20 μl of thiazolyl blue tetrazolium bromide (MTT, 5 mg/ml PBS) were added, and the incubation was continued at 37° C., 5% CO2 until blue staining of the vehicle control. Formazan formation was stopped by adding 100 μl of lysis buffer (SDS, 10%, w/v in 20 mM HCl) and samples were shaken overnight. Absorbance of each well was measured at 570 nm in a Multiskan™ microplate spectrophotometer (Thermo Scientific).

HUVEC cells = test: Antiproliferative effect (methylene blue staining); assay type: cell-based, human; conditions: at a concentration of 100 μM
Procedure: as §2
(§3) The test substances were dissolved in methanol before being diluted in DMEM. The adherent cells were harvested at the logarithmic growth phase after soft trypsinization using 0.25% trypsin in PBS containing 0.02% EDTA. For each experiment, approximately 10,000 cells were seeded with 0.1 ml culture medium per well of the 96-well microplates. […] In case of K-562 cells, the number of viable cells in every well was determined using the CellTiter-Blue1 assay. […] The optical densities were measured at 660 nm in a SUNRISE microplate reader (TECAN).

HeLa cells = test: Cytotoxic effect (methylene blue staining); assay type: cell-based, human; conditions: at a concentration of 100 μM
Procedure: as §2, §3

[4] = test system: S. aureus N315 wildtype (WT); test: Susceptibility (MIC) of S. aureus N315 wildtype; assay type: cell-based; conditions: Staphylococcus aureus
[5] = test system: S. aureus N315 mutant Mt50DscA.1; test: Susceptibility (MIC) of Disciformycin A-resistant mutant; assay type: cell-based; conditions: Staphylococcus aureus
[6] = test system: S. aureus N315 mutant Mt50DscA.2; test: as above; assay type: cell-based; conditions: Staphylococcus aureus
[7] = test system: S. aureus N315 mutant Mt50DscA.3; test: as above; assay type: cell-based; conditions: Staphylococcus aureus
[8] = test system: S. aureus N315 mutant Mt50DscA.4; test: as above; assay type: cell-based; conditions: Staphylococcus aureus
[9] = test system: S. aureus N315 mutant Mt50DscA.5; test: as above; assay type: cell-based; conditions: Staphylococcus aureus
[10] = test system: S. aureus N315 mutant Mt50DscA.6; test: as above; assay type: cell-based; conditions: Staphylococcus aureus
[11] = test system: S. aureus N315 mutant Mt50DscA.8; test: as above; assay type: cell-based; conditions: Staphylococcus aureus
[12] = test system: S. aureus N315 Mt50DscA.9; test: as above; assay type: cell-based; conditions: Staphylococcus aureus
[13] = test system: S. aureus N315 mutant Mt50DscA.10; test: as above; assay type: cell-based; conditions: Staphylococcus aureus
[14] = test system: S. aureus N315 mutant Mt50DscA.11; test: as above; assay type: cell-based; conditions: Staphylococcus aureus

Structure (SMILES)	zone of inhibition at 25 µg/hole [1]	zone of inhibition at 25 µg/hole [2]	cell viability / cytotoxicity (MTT) [3]	inhibition of proliferation (HUVEC cells)	inhibition of proliferation (HeLa cells)	MIC [4]	MIC [5]	MIC [6]	MIC [7]	MIC [8]	MIC [9]	MIC [10]	MIC [11]	MIC [12]	MIC [13]	MIC [14]
C/C=C(/C)[C@H]1C/C=C(\C)[C@@H](O[C@H]2O[C@H](CO)[C@@H](O)[C@@H]2O)[C@H](O)C(=O)CC[C@H](C)C(=O)O1 [Compound 4, gulmirecin B]	17 mm	19 mm	no reduction in cell viability at the concentrations required for antibacterial activity	did not inhibit	did not inhibit	32 µg/mL (≈ 72.3 µM)	> 64 µg/mL	> 64 µg/mL	> 64 µg/mL	> 64 µg/mL	> 64 µg/mL	> 64 µg/mL	> 64 µg/mL	> 64 µg/mL	> 64 µg/mL	> 64 µg/mL
C/C=C(/C)[C@H]1C/C=C(\C)[C@@H](O[C@H]2O[C@H](CO)[C@@H](O)[C@@H]2O)[C@H](OC(=O)CC(C)C)C(=O)C[C@@H](O)[C@H](C)C(=O)O1 [Compound 3, gulmirecin A]	29 mm	31 mm	no reduction in cell viability at the concentrations required for antibacterial activity	did not inhibit	did not inhibit	4 µg/mL (≈ 7.37 µM)	> 64 µg/mL	> 64 µg/mL	> 64 µg/mL	> 64 µg/mL	64 µg/mL (≈ 118 µM)	> 64 µg/mL	> 64 µg/mL	> 64 µg/mL	> 64 µg/mL	> 64 µg/mL
C/C=C(/C)[C@H]1C/C=C(\C)[C@@H](O[C@H]2O[C@H](CO)[C@@H](O)[C@@H]2O)[C@H](OC(=O)CC(C)C)C(=O)C/C=C(/C)C(=O)O1 [Compound 1, disciformycin A]	–	–	–	–	–	4 µg/mL (≈ 7.62 µM)	> 64 µg/mL	> 64 µg/mL	> 64 µg/mL	> 64 µg/mL	64 µg/mL (≈ 122 µM)	> 64 µg/mL	> 64 µg/mL	> 64 µg/mL	> 64 µg/mL	> 64 µg/mL

— US20200231562A1, “NOVEL MACROLIDE ANTIBIOTICS” (HELMHOLTZ-ZENTRUM FÜR INFEKTIONSFORSCHUNG GMBH, priority 2014, published 2020)
